Assay results reported in US20250324977A1, “ENGINEERED BACTERIA FOR ENHANCED CROP PRODUCTION” (The Regents of the University of California, priority 2022, published 2025).

How the values were obtained:
Arabidopsis roots = conditions: in vivo; cited from earlier work
Arabidopsis = experiment: Combinatorial root growth assay with plant growth media supplied with Trp; format: in vivo
Protocol: To further test this hypothesis, we supplied plant growth media with Trp (FIG. 4, FIGS. 13 and 14) and repeated the combinatorial assay. […] In contrast, root growth might improve if the WCS417 strain are metabolically active only around the root tips. […] However, at 10 μM, Trp inhibited the root growth of plants colonized with the wild-type WCS417 strain. […] Additionally, we inoculated the engineered strains to the Trp-overproducing Arabidopsis mutant line. Root growth and development of this Arabidopsis mutant line are not also impaired (FIG. 4).
First, Arabidopsis seeds are sterilized with 70% ethanol for 2 min and 10% bleach for 5 min. These seeds are rinsed five times with sterile water. Sterilized seeds are kept in a 4° C. fridge for 3 days and then are horizontally individually dispensed on the surface of 1/2 MS agar plates. The plates are vertically incubated in a plant growth chamber under a light cycle of 8 h dark and 16 h light for 6 days. […] On the following day, cultures are washed three times with sterile 10 mM MgCl2 solution and measured for values at OD600nm using an Eppendorf Spectro reader. Uniformly germinated 6-day-old seedlings are inoculated with 1 μL of OD600nm=0.2 culture of engineered WCS417 strains. […] Collected photos are analyzed using EZ-Root-VIS software (Shahzad et al., 2018) for primary root length, lateral root number, and total length.

| Structure (SMILES) | level of externally added IAA that significantly changes root phenotypes (Arabidopsis roots) [µM] | root growth (Arabidopsis; 0.1 μM of Trp in plant growth media) | root growth of plants colonized with the wild-type WCS417 strain (Arabidopsis; 10 μM Trp in plant growth media) |
| --- | --- | --- | --- |
| O=C(O)Cc1c[nH]c2ccccc12 [IAA, Indole-3-acetic acid] | 0.01 to 0.1 | – | – |
| N[C@@H](Cc1c[nH]c2ccccc12)C(=O)O [Trp, tryptophan] | – | did not see much impact | inhibited |
